# In patent US8778882B2, “Agent for strengthening calcium containing tissue and use thereof” (Hayashibara Co., Ltd., priority 2002, dated 2014):
# Tests used:
# [1] = system: mouse pre-osteoblastic cell MC3T3-E1; experiment: Alkaline phosphatase activity in mouse pre-osteoblastic cells; format: cell-based; conditions: for activity at 20 µM: Mus musculus; for alkaline phosphatase activity in vitro: glycosides
# Method: To increase number of osteoblastic cells having calcium-deposition activity is important for increasing bone mass. […] The activity is at low level in pre-osteoblastic cells and at high level in osteoblastic cells differentiated form the pre-osteoblastic cells. […] Since final ethanol concentration in the medium is 0.2% (v/v), α-MEM medium containing 0.2% (v/v) ethanol was prepared as a negative control. The cells were inoculated for eight days as changing the medium therewith to fresh medium with or without each sample per three days. Alkaline phosphatase activity was measured using “Alkaline Phospha B-Test Wako” (commercialized by Wako Pure Chemical Industries, Osaka, Japan) according with Kajii et al (Archives of Oral Biology, Vol. 44, pp. 233-241, (1999)). Briefly, to the above described mouse pre-osteoblastic cells washed with 1 ml of 0.25 M sucrose solution three times after removing the medium were added 0.45 ml of 50 mM carbonate salt buffer (pH9.8) containing 1 mM magnesium chloride and 50 mM sucrose and 0.05 ml of 3.4 mM disodium p-nitrophenyl phosphate in due course. The mixture was incubated at 25° C. for five minutes and admixed with 1.5 ml of 0.6N sodium hydroxide as a reaction terminator. Absorbance 405 nm of p-nitrophenol generated by alkaline phosphatase in the resulting mixture was measured, and the obtained values were used as values as alkaline phosphatase activity. […] The experiment was performed by the method according to Experiment 1 except that culture day in the medium containing each sample was three, six or nine, and concentration of each sample was 5, 10 or 20 μM. […] As a negative control, mediums containing ethanol in the above concentration were prepared for calculating relative activity to the activity of each control.
# [2] = system: mouse pre-osteoblastic cell MC3T3-E1; experiment: Calcium deposition amount by Calcium C Test Wako; format: cell-based; conditions: for Relative Calcium Deposition Amount (%) / activity at 20 µM: flavonoid comparison, Calcium C Test Wako, relative to 0.2% (v/v) ethanol negative control; for activity at 20 µM: Mus musculus, MC3T3-E1; for calcium deposition in vitro: glycosides
# Source text: Other flavonoid compounds than kaempferol or hesperetin were investigated where they have the same effect or not. Flavone (commercialized by Kanto Kagaku, Tokyo, Japan), apigenin (commercialized by Funakoshi, Co., Ltd., Tokyo, Japan), flavonol (commercialized by Tokyo Kasei Kogyo, Co., Ltd., Tokyo, Japan), quercetin (commercialized by Kanto Kagaku, Tokyo, Japan), kaempferol (commercialized by Funakoshi, Co., Ltd., Tokyo, Japan), rutin (commercialized by Kanto Kagaku, Tokyo, Japan), flavanone (commercialized by Kanto Kagaku, Tokyo, Japan), naringenin (commercialized by Ardrich Corporation), hesperetin (commercialized by Funakoshi, Co., Ltd., Tokyo, Japan), hesperidin (commercialized by Kanto Kagaku, Tokyo, Japan), chalcone (commercialized by Merk Corporation), fuloretin (commercialized by Sigma Corporation), catechin (commercialized by Sigma Corporation), ipriflavone (commercialized by Daito Corporation, Toyama, Japan), taxifolin (commercialized by Funakoshi, Co., Ltd., Tokyo, Japan), sulfuretin (commercialized by Funakoshi, Co., Ltd.; Tokyo, Japan), or cyanidin (commercialized by Funakoshi, Co., Ltd., Tokyo, Japan) was selected as test samples. Alkaline phosphatase activity was measured by the method of Experiment 1. Calcium deposition was measured by usual method using “Calcium C Test Wako” (commercialized by Wako Pure Chemical Industries, Osaka, Japan), briefly, cultured cells were washed with 1 ml of Dulbecco phosphate buffer saline three times after removing the medium. To the resultant was added 0.5 ml of 2N hydrochloric acid to resolve deposited calcium. To 5 μl of the resultant solution were added 0.5 ml of 0.88M monoethanolamine buffer (pH11) and 0.05 ml of 0.63 mM o-cresolphthalein complexone solution (binding to calcium ion to form chelate complex) containing 69 mM 8-quinolinol and mixed. Calcium amount per one hole of the plate was calculated by measuring absorbance 570 nm of the resultants and standardizing with a standard calcium solution. The judgement of alkaline phosphatase activity or calcium deposition amount of each sample was to calculate the relative activity or the relative calcium deposition amount to the negative control (only medium containing 0.2% (v/v) ethanol) and to compare each other.
# The enhancement of calcium deposition between kaempferol and ipripfavone were compared. Test samples and their adding manner were same as Experiment 4. Calcium deposition amount was measured by usual method using “Calcium C Test Wako” (commercialized by Wako Pure Chemical Industries, Osaka, Japan); briefly, cultured cells were washed with 1 ml of Dulbecco phosphate buffer saline three times after removing the medium. To the resultant was added 0.5 ml of 2N hydrochloric acid to resolve deposited calcium. To 5 μl of the resolving solution were added 0.5 ml of 0.88M monoethanolamine buffer (pH11) and 0.05 ml of 0.63 mM o-cresolphthalein complexone solution (binding to calcium ion to form chelate complex) containing 69 mM 8-quinolinol and mixed, Calcium amount per one hole of the plate was calculated by measuring absorbance 570 nm of the resultants and standardizing with a standard calcium solution.
# Kaempferol or hesperetin in combination with ipriflavone, or a kind of isoflavones, was investigated whether to enhance calcium deposition or not. Methods for preparing samples and culturing the cells were the same method described in Experiment 1 except culturing the cells for five days, Method for measuring calcium was the same method described in Experiment 3 and 5. Final ethanol concentration of the medium containing each sample was adjusted as same concentration.
# Rat Femur and Tibia = experiment: Enhancing calcium deposition in rat femur and tibia; format: in vivo; conditions: for Calcium Content Per One Dried Bone / Dried Bone Mass: rats fed sample in high sucrose feeding stuff for eight weeks; for calcium deposition in femur and tibia: rats, eight weeks feeding
# Method: The experiment was performed using six three-weeks-aged female Wister rats per one group. The rats were fed with high sucrose feeding stuff containing ingredients listed Table 11 (In the Table, each value means “weight %”.) and one part by weight of each test sample; hesperetin (commercialized by Funakoshi, Co., Ltd., Tokyo, Japan), quercetin (commercialized by Tokyo Kasei Kogyo, Co., Ltd., Tokyo, Japan), α-glycosyl hesperidin (product name “αG HESPERIDINE”, commercialized by Hayashibara Shoji Inc., Okayama, Japan), α-glycosyl rutin (product name “αG RUTIN P”, commercialized by Hayashibara Shoji Inc., Okayama, Japan), or ipriflavone (commercialized by Daito Corporation, Toyama, Japan) (positive control). As a negative control, rats fed with feedstuff containing one part by weight of sucrose replacing test sample were prepared. The rats were allowed to freely take water. The rats were killed after eight weeks, and then, their femurs and tibias were excised. Each femur or tibia dried at 100° C. for about six hours was measured by electric even balance for high precision analysis (product name “HA180M/12QM”, commercialized by A & D Co, Ltd., Tokyo, Japan), and then, each bone was placed into a crucible and burned in an incinerator at 950° C. for six hours. The cinerary resultant was resolved in hydrochloric solution and provided for measuring calcium amount by atomic absorption photometer. Calcium amount per one dried bone was calculated and compared each other.
# [3] = flavonoid comparison, method of Experiment 1, relative to 0.2% (v/v) ethanol negative control
# [4] = MC3T3-E1, flavonoid comparison, method of Experiment 1, relative to 0.2% (v/v) ethanol negative control
# [5] = 192 h, MC3T3-E1, 20 mM each compound (so in the source), eight days, relative to 0.2% (v/v) ethanol negative control
# [6] = MC3T3-E1, 20 mM each compound (so in the source), eight days, relative to 0.2% (v/v) ethanol negative control
compound,measurement,setting,value
C[C@@H]1O[C@@H](OC[C@H]2O[C@@H](Oc3c(-c4ccc(O)c(O)c4)oc4cc(O)cc(O)c4c3=O)[C@H](O)[C@@H](O)[C@@H]2O)[C@H](O)[C@H](O)[C@H]1O [Rutin],Relative Alkaline Phosphatase Activity (%),[1]; [3],109%
same,Relative Calcium Deposition Amount (%),[2],74%
O=C1c2c(O)cc(O)cc2O[C@H](c2ccc(O)c(O)c2)[C@H]1O [Taxifolin],activity at 20 µM,[1]; [4],98%
same,activity at 20 µM,[2],234%
"Cn1c(=O)c2c(ncn2C)n(C)c1=O [Caffein, caffein]",activity at 20 µM,[1]; [5],100%
α-glycosyl rutin,alkaline phosphatase activity in vitro,[1],did not demonstrate
same,calcium deposition in vitro,[2],did not demonstrate
same,Calcium Content Per One Dried Bone,Rat Femur and Tibia; Femur,119.9 mg
same,Dried Bone Mass,Rat Femur and Tibia; Femur,0.439 g
same,Calcium Content Per One Dried Bone,Rat Femur and Tibia; Tibia,107.7 mg
same,Dried Bone Mass,Rat Femur and Tibia; Tibia,0.343 g
same,calcium deposition in femur and tibia,Rat Femur and Tibia,increase of calcium deposition content
O=C1C[C@@H](c2ccc(O)cc2)Oc2cc(O)cc(O)c21 [Naringenin],activity at 20 µM,[1]; [4],110%
same,activity at 20 µM,[2],271%
tocopherol,Relative Alkaline Phosphatase Activity (%),[1]; [6],100%
O=c1c(O)c(-c2ccc(O)c(O)c2)oc2cc(O)cc(O)c12 [Quercetin],activity at 20 µM,[1]; [4],120%
same,activity at 20 µM,[2],118%
same,Calcium Content Per One Dried Bone,Rat Femur and Tibia; Femur,120.3 mg
same,Dried Bone Mass,Rat Femur and Tibia; Femur,0.456 g
same,Calcium Content Per One Dried Bone,Rat Femur and Tibia; Tibia,108.7 mg
same,Dried Bone Mass,Rat Femur and Tibia; Tibia,0.352 g
Phloretin,Relative Alkaline Phosphatase Activity (%),[1]; [3],109%
same,Relative Calcium Deposition Amount (%),[2],238%
O=C1CC(c2ccccc2)Oc2ccccc21 (stereo not drawn) [Flavanone],activity at 20 µM,[1]; [4],109%
same,activity at 20 µM,[2],311%
α-glycosyl hesperidin,alkaline phosphatase activity in vitro,[1],did not demonstrate
same,calcium deposition in vitro,[2],did not demonstrate
same,Calcium Content Per One Dried Bone,Rat Femur and Tibia; Femur,126.9 mg
same,Dried Bone Mass,Rat Femur and Tibia; Femur,0.454 g
same,Calcium Content Per One Dried Bone,Rat Femur and Tibia; Tibia,109.5 mg
same,Dried Bone Mass,Rat Femur and Tibia; Tibia,0.349 g
same,calcium deposition in femur and tibia,Rat Femur and Tibia,increase of calcium deposition content
Cc1cc(=O)oc2cc(O)ccc12 [4-Methylumbelliferone],Relative Alkaline Phosphatase Activity (%),[1]; [6],96%
Oc1cc(O)c2cc(O)c(-c3ccc(O)c(O)c3)[o+]c2c1 [Cyanidin],Relative Alkaline Phosphatase Activity (%),[1]; [3],115%
same,Relative Calcium Deposition Amount (%),[2],216%
O=c1cc(-c2ccccc2)oc2ccccc12 [Flavone],activity at 20 µM,[1]; [4],103%
same,activity at 20 µM,[2],158%
COc1ccc([C@@H]2CC(=O)c3c(O)cc(O[C@@H]4O[C@H](CO[C@@H]5O[C@@H](C)[C@H](O)[C@@H](O)[C@H]5O)[C@@H](O)[C@H](O)[C@H]4O)cc3O2)cc1O [Hesperidin],"enhancement of alkaline phosphatase activity, daily course (FIG. 1)","[1]; 5, 10 or 20 μM, culture day three, six or nine, relative to ethanol control",remarkable enhancement of alkaline phosphatase activity at third day
same,Relative Alkaline Phosphatase Activity (%),[1]; [3],107%
same,alkaline phosphatase activity in vitro,[1],did not demonstrate
same,Relative Calcium Deposition Amount (%),[2],118%
same,calcium deposition in vitro,[2],did not demonstrate
same,calcium deposition in femur and tibia,Rat Femur and Tibia,increase of calcium deposition content
O.Oc1cc(O)c2c(c1)O[C@H](c1ccc(O)c(O)c1)[C@@H](O)C2 [Catechin],Relative Alkaline Phosphatase Activity (%),[1]; [3],118%
same,Relative Calcium Deposition Amount (%),[2],247%
"CC(C)Oc1ccc2c(=O)c(-c3ccccc3)coc2c1 [Ipriflavone, reference compound]",Relative Alkaline Phosphatase Activity (%),[1]; [3],114%
same,Relative Calcium Deposition Amount (%),[2],263%
same,Calcium Content Per One Dried Bone,Rat Femur and Tibia; Femur,120.0 mg
same,Dried Bone Mass,Rat Femur and Tibia; Femur,0.428 g
same,Calcium Content Per One Dried Bone,Rat Femur and Tibia; Tibia,106.0 mg
same,Dried Bone Mass,Rat Femur and Tibia; Tibia,0.338 g
O=C(/C=C/c1ccccc1)c1ccccc1 [Chalcone],activity at 20 µM,[1]; [4],105%
same,activity at 20 µM,[2],104%
"CC1CCC(C(C)C)C(O)C1 (stereo not drawn) [Menthol, menthol]",activity at 20 µM,[1]; [5],95%
O=c1cc(-c2ccc(O)cc2)oc2cc(O)cc(O)c12 [Apigenin],activity at 20 µM,[1]; [4],128%
same,activity at 20 µM,[2],247%
O=C1/C(=C/c2ccc(O)c(O)c2)Oc2cc(O)ccc21 [Sulfuretin],Relative Alkaline Phosphatase Activity (%),[1]; [3],126%
same,Relative Calcium Deposition Amount (%),[2],157%
"CC1=C(/C=C/C(C)=C/C=C/C(C)=C/C=C/C=C(C)/C=C/C=C(C)/C=C/C2=C(C)CCCC2(C)C)C(C)(C)CCC1 [β-Carotene, β-carotene]",activity at 20 µM,[1]; [5],81%
O=c1c(O)c(-c2ccccc2)oc2ccccc12 [Flavonol],activity at 20 µM,[1]; [4],139%
same,activity at 20 µM,[2],295%
"COc1cc(C=O)ccc1O [Vanillin, vanillin]",activity at 20 µM,[1]; [5],89%
CC1(C)[C@@H](O[C@H]2O[C@H](C(=O)O)[C@@H](O)[C@H](O)[C@H]2O[C@@H]2O[C@H](C(=O)O)[C@@H](O)[C@H](O)[C@H]2O)CC[C@]2(C)[C@H]3C(=O)C=C4[C@@H]5C[C@@](C)(C(=O)O)CC[C@]5(C)CC[C@@]4(C)[C@]3(C)CC[C@@H]12 [Glycyrrizinic Acid],Relative Alkaline Phosphatase Activity (%),[1]; [6],97%
